Source: PMC3940083 (International Journal for Parasitology: Drugs and Drug …, 2013)
Blank lines part the entries; values can stand above or below the compound they belong to.

Tests used:
Type in all cases: biochemical
[1] = target: T1, PfAdoMetDC (S-adenosyl-L-methionine decarboxylase) (Plasmodium falciparum, UniProt Q8IJ77); experiment: radiolabeled CO2 release assay, % inhibition at […]; conditions: read-out: % inhibition at 1 μM
T1 sequence (Q8IJ77 1-72 limits assumed): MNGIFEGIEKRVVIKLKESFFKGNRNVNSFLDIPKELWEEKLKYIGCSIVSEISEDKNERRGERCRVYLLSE
T1 sequence (Q8IJ77 73-529 limits assumed): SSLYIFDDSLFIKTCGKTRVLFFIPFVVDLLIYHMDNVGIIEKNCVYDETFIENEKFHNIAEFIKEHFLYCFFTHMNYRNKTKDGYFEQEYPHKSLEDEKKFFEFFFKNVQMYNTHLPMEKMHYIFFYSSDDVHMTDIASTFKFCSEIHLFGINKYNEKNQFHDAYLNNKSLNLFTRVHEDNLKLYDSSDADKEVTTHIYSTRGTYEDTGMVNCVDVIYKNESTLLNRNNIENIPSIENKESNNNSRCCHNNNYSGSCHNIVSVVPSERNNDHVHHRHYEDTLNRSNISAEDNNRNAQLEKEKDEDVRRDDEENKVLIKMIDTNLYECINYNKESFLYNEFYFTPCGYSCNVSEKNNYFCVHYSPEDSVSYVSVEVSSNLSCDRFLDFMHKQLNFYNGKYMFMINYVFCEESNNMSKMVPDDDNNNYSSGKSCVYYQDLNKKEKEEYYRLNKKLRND

[2] = target: T2, PfAdoMetDC/ODC (S-adenosyl-L-methionine decarboxylase, AdoMetDC domain) (Plasmodium falciparum, UniProt Q8IJ77); conditions: read-out: Ki
T2 sequence (Q8IJ77 1-72): T1 sequence (Q8IJ77 1-72 limits assumed)
T2 sequence (Q8IJ77 73-1434): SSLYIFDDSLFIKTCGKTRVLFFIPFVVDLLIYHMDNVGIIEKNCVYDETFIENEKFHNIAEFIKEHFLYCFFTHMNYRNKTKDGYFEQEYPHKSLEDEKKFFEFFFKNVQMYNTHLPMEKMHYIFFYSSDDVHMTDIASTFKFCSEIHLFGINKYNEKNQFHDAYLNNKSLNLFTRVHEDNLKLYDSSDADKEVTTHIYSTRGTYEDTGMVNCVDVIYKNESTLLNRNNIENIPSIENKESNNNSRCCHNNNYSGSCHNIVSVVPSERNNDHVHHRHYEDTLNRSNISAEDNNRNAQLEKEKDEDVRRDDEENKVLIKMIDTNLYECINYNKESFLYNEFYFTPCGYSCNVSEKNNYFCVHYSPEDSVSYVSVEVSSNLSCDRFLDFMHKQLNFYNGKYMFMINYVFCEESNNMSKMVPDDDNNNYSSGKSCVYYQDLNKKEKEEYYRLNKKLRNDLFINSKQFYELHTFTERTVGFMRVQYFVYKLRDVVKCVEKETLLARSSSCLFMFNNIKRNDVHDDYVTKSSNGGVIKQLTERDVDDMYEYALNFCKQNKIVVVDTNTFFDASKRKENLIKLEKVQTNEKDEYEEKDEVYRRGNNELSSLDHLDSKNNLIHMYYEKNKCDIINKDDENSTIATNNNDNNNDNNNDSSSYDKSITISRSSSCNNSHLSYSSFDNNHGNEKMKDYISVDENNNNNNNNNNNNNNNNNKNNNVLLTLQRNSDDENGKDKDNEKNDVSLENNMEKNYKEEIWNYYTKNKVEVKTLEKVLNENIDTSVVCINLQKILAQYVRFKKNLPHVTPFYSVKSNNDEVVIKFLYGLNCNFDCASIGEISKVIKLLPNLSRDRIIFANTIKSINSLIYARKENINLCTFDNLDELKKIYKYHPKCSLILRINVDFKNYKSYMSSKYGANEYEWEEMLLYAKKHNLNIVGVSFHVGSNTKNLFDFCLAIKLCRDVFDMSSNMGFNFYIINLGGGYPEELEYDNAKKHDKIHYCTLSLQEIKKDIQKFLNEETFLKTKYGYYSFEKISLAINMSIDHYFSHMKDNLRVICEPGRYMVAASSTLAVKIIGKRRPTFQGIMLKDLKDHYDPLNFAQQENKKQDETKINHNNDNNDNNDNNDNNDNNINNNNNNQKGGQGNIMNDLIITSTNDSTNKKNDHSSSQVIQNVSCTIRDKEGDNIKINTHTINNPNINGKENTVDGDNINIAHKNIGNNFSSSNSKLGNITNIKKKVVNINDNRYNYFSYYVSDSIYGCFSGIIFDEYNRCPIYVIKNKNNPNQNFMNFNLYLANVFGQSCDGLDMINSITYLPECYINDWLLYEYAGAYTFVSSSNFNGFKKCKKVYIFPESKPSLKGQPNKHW

[3] = target: T1, PfAdoMetDC (S-adenosyl-L-methionine decarboxylase); conditions: read-out: Ki

inhibition at 1 µM [1]: 57%
Compound: CN(C/C=C\CN)C[C@H]1O[C@@H](n2cnc3c(N)ncnc32)[C@@](O)(F)[C@@H]1O [Genz-644043, 2′-fluoro-5′-{[(Z)-4-amino-2-butenyl]methylamino}-5′-deoxyadenosine]

KI (inactivation) [2]: 180 ± 20 nM
Compound: Cc1nc2c(N)ncnc2n1[C@@H]1O[C@H](CN(C)C/C=C\CN)[C@@H](O)[C@H]1O [Genz-644131, 8-methyl-5′-{[(Z)-4-aminobut-2-enyl]methylamino}-5′-deoxyadenosine]

KI (inactivation) [3]: 220 ± 90 nM
Compound: CN(C/C=C\CN)C[C@H]1O[C@@H](n2cnc3c(N)ncnc32)[C@H](O)[C@@H]1O [MDL73811, 5′-{[(Z)-4-amino-2-butenyl]methylamino}-5′-deoxyadenosine]
